Results from patent US7795226B2, “Control of radiation injury” (Biotempt B.V., priority 2006, dated 2010).

These substances were tested on cell-cycle marker pCDG and auxin-responsive marker DR5::GUS (assay: Arabidopsis thaliana seedling cell-cycle analysis (GUS markers)). Conditions: Results from Examples 9 and 10.
Experimental: To further study anti-cell-cycle activity of various oligopeptides, a proliferation experiment in Arabidopsis Thaliana seedlings was performed. The aim was to test a group of 140 oligopeptides of varying length for their effect on plant marker gene expression during rapid growth when avid cell division occurs.
The peptides were re-suspended in 1× Phosphate Buffer Saline (PBS) pH 8 to a final concentration of 5 mg/ml. The obtained solutions were then divided through 96-well round bottom plates (Corning Incorporated) at 40 microliters per well. Plates were stored before use at […] for four days. Seeds of Arabidopsis thaliana ecotype Ws-0 were surface sterilized in 2% commercial bleach (Gloria) for ten minutes and washed five times with sterile MQ water. The seeds were then re-suspended with 0.1% agar and plated on MS20 plates supplemented with 80 mg/l Kanamycin.
The plates were placed at […] for two nights and then transferred to a climate room at […] and a 16/8 hours photoperiod. After four days of growth, the seedlings were transferred to 96-well plates containing the peptide solutions (four seedlings per well) and incubated for four and eight hours.
For this experiment, Arabidopsis homozygous seedlings harboring two reporter genes fused to GUS were used. […] After incubation with the compounds, the seedlings were stained for GUS. The staining reaction was performed in 100 mM sodium phosphate buffer (pH 7.0) that contained 10 mM EDTA, 10% DMSO, 0.1% Triton X-100, 2 mM X-Gluc, 0.5 mM K3Fe(CN)6 and 0.5 mM K4Fe(CN)6 at […] for 16 hours. […] Seedlings were fixed and cleared in chloral hydrate solution for detailed microscopic observation and photography under a microscope equipped with DIC optics.
Peptides were tested for an effect on marker gene expression on rapidly growing Arabidopsis young seedlings. This was monitored by changes on GUS distribution in different organs: root, root-hypocotyl transition zone and cotyledons.

**Q.** With QVVC (tetramer peptide) as the substance, how does the “identified as useful peptide for treatment of radiation injury from cell-cycle studies in plants and in vitro proliferation studies” value (“identified as useful peptide” for short) read?
**A.** Its value is “useful”.

**Q.** Which “identified as useful peptide” value does the source give for LNEAL (pentamer peptide) here?
**A.** The value was “useful”.

**Q.** For LTCDDP, which “identified as useful peptide” value is on record?
**A.** Its value is “useful”.

**Q.** Which “identified as useful peptide” value does the source give for EPPE (tetramer peptide) here?
**A.** Its value is “useful”.

**Q.** CPVQ (tetramer peptide) was tested. Which “identified as useful peptide” value did it give?
**A.** Its value is “useful”.

**Q.** Which “identified as useful peptide” value does the source give for DINGFLPAL here?
**A.** The value was “useful”.

**Q.** How did the “identified as useful peptide” value turn out when FWVD (CRP-derived peptide) was run?
**A.** The value was “useful”.

**Q.** How did the “identified as useful peptide” value turn out when EMFQ (tetramer peptide) was run?
**A.** The value was “useful”.

**Q.** For AFTV (CRP-derived peptide), which “identified as useful peptide” value is on record?
**A.** The value was “useful”.

**Q.** For LCFL, which “identified as useful peptide” value is on record?
**A.** The value was “useful”.

**Q.** How did the “identified as useful peptide” value turn out when RVLQ (tetramer peptide) was run?
**A.** The value was “useful”.

**Q.** With MTEV (tetramer peptide) as the substance, how does the “identified as useful peptide” value read?
**A.** Its value is “useful”.

**Q.** With LHNL as the substance, how does the “identified as useful peptide” value read?
**A.** The value was “useful”.

**Q.** For LQGA (tetramer peptide), which “identified as useful peptide” value is on record?
**A.** Its value is “useful”.

**Q.** For “QLLG (human beta-catenin-derived peptide)”, which “identified as useful peptide” value is on record?
**A.** The value was “useful”.

**Q.** For MGGTWA, which “identified as useful peptide” value is on record?
**A.** The value was “useful”.

**Q.** Which “identified as useful peptide” value does the source give for “APSL (human beta-catenin-derived peptide)” here?
**A.** The value was “useful”.

**Q.** How did the “identified as useful peptide” value turn out when VCNYRDV was run?
**A.** The value was “useful”.

**Q.** Which “identified as useful peptide” value does the source give for AVAL here?
**A.** Its value is “useful”.

**Q.** For LGTL, which “identified as useful peptide” value is on record?
**A.** Its value is “useful”.

**Q.** Which “identified as useful peptide” value does the source give for “SPIE (human beta-catenin-derived peptide)” here?
**A.** Its value is “useful”.

**Q.** Which “identified as useful peptide” value does the source give for RLPG here?
**A.** The value was “useful”.

**Q.** How did the “identified as useful peptide” value turn out when PGCP was run?
**A.** Its value is “useful”.

**Q.** For NMWD (CRP-derived peptide), which “identified as useful peptide” value is on record?
**A.** The value was “useful”.

**Q.** How did the “identified as useful peptide” value turn out when VEGNL (pentamer peptide) was run?
**A.** The value was “useful”.

**Q.** With EALE (tetramer peptide) as the substance, how does the “identified as useful peptide” value read?
**A.** Its value is “useful”.

**Q.** Which “identified as useful peptide” value does the source give for VLPAPLQ (septamer peptide) here?
**A.** Its value is “useful”.

**Q.** VGGI was tested. Which “identified as useful peptide” value did it give?
**A.** Its value is “useful”.

**Q.** With QPLAPLVG as the substance, how does the “identified as useful peptide” value read?
**A.** Its value is “useful”.

**Q.** How did the “identified as useful peptide” value turn out when “ITTL (human beta-catenin-derived peptide)” was run?
**A.** Its value is “useful”.

**Q.** FSYA (CRP-derived peptide) was tested. Which “identified as useful peptide” value did it give?
**A.** Its value is “useful”.

**Q.** With TLAVE (beta-hCG-derived peptide) as the substance, how does the “identified as useful peptide” value read?
**A.** Its value is “useful”.

**Q.** Which “identified as useful peptide” value does the source give for “YAIT (human beta-catenin-derived peptide)” here?
**A.** Its value is “useful”.

**Q.** How did the “identified as useful peptide” value turn out when “NLIN (human beta-catenin-derived peptide) [NUN]” was run?
**A.** The value was “useful”.

**Q.** Which “identified as useful peptide” value does the source give for FVLS (CRP-derived peptide) here?
**A.** The value was “useful”.

**Q.** Which “identified as useful peptide” value does the source give for “GVLC (human beta-catenin-derived peptide)” here?
**A.** Its value is “useful”.

**Q.** How did the “identified as useful peptide” value turn out when VGQL (tetramer peptide) was run?
**A.** Its value is “useful”.

**Q.** Which “identified as useful peptide” value does the source give for “LNTI (human beta-catenin-derived peptide)” here?
**A.** Its value is “useful”.

**Q.** For EVVR (tetramer peptide), which “identified as useful peptide” value is on record?
**A.** Its value is “useful”.

**Q.** CPRGVNP was tested. Which “identified as useful peptide” value did it give?
**A.** Its value is “useful”.

**Q.** How did the “identified as useful peptide” value turn out when LQAV (tetramer peptide) was run?
**A.** Its value is “useful”.

**Q.** For “QALG (human beta-catenin-derived peptide)”, which “identified as useful peptide” value is on record?
**A.** Its value is “useful”.

Same assay, conditions: seedlings incubated four and eight hours; 5 mg/ml peptide solution

**Q.** How did the “effect on cell-cycle marker (pCDG) and auxin-responsive marker (DR5::GUS) (in words)” value turn out when DINGFLPAL was run?
**A.** Its value is “less consistent and time-dependent effect”.
